Experimental data as given in ChEMBL document CHEMBL3751795, “Discovery of pyridyl-based inhibitors of Plasmodium falciparum N-myristoyltransferase” (Medchemcomm, 2015).

How the values were obtained:
[1] = molecular target: T1, Glycylpeptide N-tetradecanoyltransferase (Plasmodium falciparum (isolate 3D7), UniProt Q8ILW6); details: read-out: Ki(app)
T1 sequence (Q8ILW6 whole entry): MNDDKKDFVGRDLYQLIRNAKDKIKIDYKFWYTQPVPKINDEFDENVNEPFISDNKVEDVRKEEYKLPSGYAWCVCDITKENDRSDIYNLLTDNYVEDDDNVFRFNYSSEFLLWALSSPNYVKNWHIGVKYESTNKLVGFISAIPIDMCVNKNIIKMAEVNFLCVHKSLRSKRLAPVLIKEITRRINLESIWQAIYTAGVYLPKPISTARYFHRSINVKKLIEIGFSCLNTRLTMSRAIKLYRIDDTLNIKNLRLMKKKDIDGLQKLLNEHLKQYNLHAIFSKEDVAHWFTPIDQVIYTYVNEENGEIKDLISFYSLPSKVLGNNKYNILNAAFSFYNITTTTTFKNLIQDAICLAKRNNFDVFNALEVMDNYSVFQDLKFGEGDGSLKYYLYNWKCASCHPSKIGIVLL

[2] = Cytotoxicity against human HepG2 cells after 48 hrs by MTS assay; assay type: cell-based; details: read-out: LD50
[3] = molecular target: T2, Glycylpeptide N-tetradecanoyltransferase 1 (Homo sapiens, UniProt P30419)
T2 sequence (P30419 whole entry): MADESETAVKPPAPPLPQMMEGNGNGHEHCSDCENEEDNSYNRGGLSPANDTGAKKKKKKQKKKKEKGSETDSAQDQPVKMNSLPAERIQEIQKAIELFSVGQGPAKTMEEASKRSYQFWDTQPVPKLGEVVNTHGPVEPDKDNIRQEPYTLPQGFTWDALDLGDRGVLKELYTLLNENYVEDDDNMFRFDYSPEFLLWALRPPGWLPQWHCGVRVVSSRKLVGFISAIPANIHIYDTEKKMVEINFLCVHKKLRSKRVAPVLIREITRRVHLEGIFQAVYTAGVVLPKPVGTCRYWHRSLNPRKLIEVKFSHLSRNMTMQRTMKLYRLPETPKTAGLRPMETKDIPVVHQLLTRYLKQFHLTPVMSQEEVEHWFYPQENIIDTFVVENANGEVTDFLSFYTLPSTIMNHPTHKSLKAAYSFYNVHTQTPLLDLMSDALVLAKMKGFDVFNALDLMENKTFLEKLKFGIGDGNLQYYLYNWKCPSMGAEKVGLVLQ
Description: Inhibition of human NMT1 by 7-diethylamine-3-(4'maleimidylphenyl)-4-methylcoumarin based fluorescence assay

Plasmodium falciparum = test: Antiparasitic activity against Plasmodium falciparum 3D7 trophozoites infected in RBC assessed as reduction in cell viability incubated for 96 hrs SyBr green assay; details: 3D7, 96 h

| SMILES | Ki [1] | CC50 at 48 h [2] | Ki [3] | EC50 (Plasmodium falciparum) |
| --- | --- | --- | --- | --- |
| Cc1nn(C)c(C)c1Cc1noc(-c2cccnc2OC2CCN(C(C)C)CC2)n1 | 90 nM | > 100 µM | – | – |
| COc1ccc(OC2CCNCC2)c(-c2nc(Cc3ccccc3)no2)c1 | 4600 nM | – | 2300 nM | – |
| COc1cccc(Cc2noc(-c3cccnc3OC3CCNCC3)n2)c1 | 27 nM | – | – | – |
| COc1cccc(Cc2noc(-c3ccc(F)cc3OC3CCNCC3)n2)c1 | 71 nM | – | – | – |
| Fc1cccc(OC2CCNCC2)c1-c1nc(Cc2ccccc2)no1 | 4800 nM | – | – | – |
| Fc1cccc(-c2nc(Cc3ccccc3)no2)c1OC1CCNCC1 | 1500 nM | – | – | – |
| Cc1nn(C)c(C)c1Cc1noc(-c2cccnc2OC2CCN(C)CC2)n1 | 570 nM | – | – | > 30 µM |
| COc1cccc(Cc2noc(-c3ccccc3OC3CCNCC3)n2)c1 | 190 nM | – | 1400 nM | – |
| c1cnc(OC2CCNCC2)c(-c2nc(Cc3cccc4ncccc34)no2)c1 | 1.7 nM | 65 µM | 24 nM | 0.21 µM |
| Cc1ccc(OC2CCNCC2)c(-c2nc(Cc3ccccc3)no2)c1 | 29000 nM | – | – | – |
| Clc1ccc(-c2nc(Cc3ccccc3)no2)c(OC2CCNCC2)c1 | 290 nM | – | – | – |
| Clc1ccc(OC2CCNCC2)c(-c2nc(Cc3ccccc3)no2)c1 | 520 nM | – | – | – |
| Fc1ccc(OC2CCNCC2)c(-c2nc(Cc3ccccc3)no2)c1 | 240 nM | – | 1000 nM | – |
| c1ccc(Cc2noc(-c3ncccc3OC3CCNCC3)n2)cc1 | 29000 nM | – | – | – |
| c1ccc(Cc2noc(-c3cccnc3OC3CCNCC3)n2)cc1 | 140 nM | – | 1700 nM | – |
| COc1cccc(Cc2noc(-c3ccc(OC)cc3OC3CCNCC3)n2)c1 | 71 nM | – | – | – |
| COc1ccc(-c2nc(Cc3ccccc3)no2)c(OC2CCNCC2)c1 | 180 nM | – | 1200 nM | – |
| Cc1nn(C)c(C)c1Cc1noc(-c2cccnc2OC2CCNCC2)n1 | 28 nM | > 100 µM | – | – |
| COc1cccc(-c2nc(Cc3ccccc3)no2)c1OC1CCNCC1 | 17000 nM | – | – | – |
| Cc1cccc(-c2nc(Cc3ccccc3)no2)c1OC1CCNCC1 | 39000 nM | – | – | – |
| COc1cccc(Cc2noc(-c3ccc(Cl)cc3OC3CCNCC3)n2)c1 | 30 nM | – | – | – |
| c1ccc(Cc2noc(-c3ccccc3OC3CCNCC3)n2)cc1 | 1400 nM | – | – | – |
| Cc1ccc(-c2nc(Cc3ccccc3)no2)c(OC2CCNCC2)c1 | 620 nM | – | – | – |
| CCN1CCC(Oc2ncccc2-c2nc(Cc3c(C)nn(C)c3C)no2)CC1 | 340 nM | – | – | > 10 µM |
| Fc1ccc(-c2nc(Cc3ccccc3)no2)c(OC2CCNCC2)c1 | 220 nM | – | 4900 nM | – |
